Measured values taken from paper PMC6112376, “Comprehensive Analyses and Prioritization of Tox21 10K Chemicals Affecting Mitochondrial Function by in-Depth Mechanistic Studies” (Environmental Health Perspectives, 2018).
Like-named read-outs stand apart in the source and are kept apart here.

Experiments:
[1] = tested on: mitochondrial respiratory chain complex III; assay type: biochemical, rat
HepG2 cells [2] = experiment: Intracellular ATP content (cell viability) assay; assay type: cell-based, human; settings: Homo sapiens, HepG2, 40 h treatment, mean±SD of three experiments
rat primary hepatocytes = experiment: MMP assay in rat primary hepatocytes; settings: for Rat hepatocytes (efficacy) (MMP): % of positive control, mean±SD of three experiments; for IC50: Rattus norvegicus, Hepatocyte; for MMP assays efficacy (%) Rat Hepatocytes: mean ± SD of three experiments
[3] = tested on: p53 (p53-bla HCT-116 cells); experiment: p53 β-lactamase reporter gene assay; assay type: cell-based, human; settings: 16 h incubation; mean±SD of three experiments
[4] = tested on: HeLa cells expressing YFP-Parkin; experiment: Parkin translocation assay; assay type: cell-based, human; settings: HeLa cells stably expressing YFP-Parkin; treated for 2 h
[5] = tested on: mitochondrial respiratory chain complex V; assay type: biochemical, rat
HepG2 cells [6] = experiment: cells; settings: Homo sapiens; for Emax: HepG2, read-out: MMP assays efficacy (%) HepG2
HepG2 cells [7] = settings: cited from earlier work
[8] = molecular target: T1, mitochondrial respiratory chain complex II (Rattus norvegicus, UniProt P21913+Q641Z9+Q6PCT8+Q920L2); experiment: Respiratory chain complex II activity; assay type: biochemical; settings: tested up to 100μM
T1 construct: Submitochondrial particles were prepared by subjecting the intact rat mitochondria, isolated as described above, to three successive freeze–thaw cycles; from tissue; host or cells: rat liver mitochondria (submitochondrial particles)
T1 sequence (Q920L2 35-656): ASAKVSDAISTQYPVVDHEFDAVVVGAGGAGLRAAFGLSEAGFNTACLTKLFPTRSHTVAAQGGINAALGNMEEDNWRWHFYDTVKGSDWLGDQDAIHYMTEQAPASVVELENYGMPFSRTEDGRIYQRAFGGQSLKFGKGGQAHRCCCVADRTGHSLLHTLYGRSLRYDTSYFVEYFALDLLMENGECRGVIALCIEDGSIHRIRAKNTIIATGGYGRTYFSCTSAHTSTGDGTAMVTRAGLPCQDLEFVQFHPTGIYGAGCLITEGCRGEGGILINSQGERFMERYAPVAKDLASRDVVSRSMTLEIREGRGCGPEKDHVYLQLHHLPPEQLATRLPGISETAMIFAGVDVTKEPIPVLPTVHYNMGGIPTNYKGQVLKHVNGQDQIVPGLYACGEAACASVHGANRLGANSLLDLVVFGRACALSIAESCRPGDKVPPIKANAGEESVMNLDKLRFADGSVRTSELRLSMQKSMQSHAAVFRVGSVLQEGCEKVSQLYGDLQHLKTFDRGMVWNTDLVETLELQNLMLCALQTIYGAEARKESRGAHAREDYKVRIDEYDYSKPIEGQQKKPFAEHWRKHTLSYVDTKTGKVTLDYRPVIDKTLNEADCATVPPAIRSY
T1 sequence (P21913 31-282): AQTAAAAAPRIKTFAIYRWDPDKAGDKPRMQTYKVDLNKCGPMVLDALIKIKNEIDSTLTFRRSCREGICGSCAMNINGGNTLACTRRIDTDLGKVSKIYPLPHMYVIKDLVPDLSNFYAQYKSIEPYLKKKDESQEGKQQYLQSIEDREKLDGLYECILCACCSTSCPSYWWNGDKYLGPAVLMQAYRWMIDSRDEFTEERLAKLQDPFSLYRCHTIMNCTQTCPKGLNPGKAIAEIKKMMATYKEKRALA
T1 sequence (Q641Z9 1-169): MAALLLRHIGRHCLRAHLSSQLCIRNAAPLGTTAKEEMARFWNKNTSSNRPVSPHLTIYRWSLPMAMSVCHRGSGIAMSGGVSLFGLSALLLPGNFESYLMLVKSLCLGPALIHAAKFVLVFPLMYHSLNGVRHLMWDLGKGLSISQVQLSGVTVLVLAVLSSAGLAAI
T1 sequence (Q6PCT8 57-159): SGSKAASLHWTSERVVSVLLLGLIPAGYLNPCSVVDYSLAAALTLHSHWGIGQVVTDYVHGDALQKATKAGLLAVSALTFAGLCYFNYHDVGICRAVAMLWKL

[9] = tested on: mitochondrial respiratory chain complex IV; assay type: biochemical, rat
hNSC = experiment: MMP assay in human neural stem cells (hNSC); assay type: cell-based; settings: Homo sapiens, Neural stem cell; 1 h treatment; fresh re-sourced stocks; mean±SD of three experiments; read-out: hNSC IC50 (MMP)
[10] = tested on: Caenorhabditis elegans (Bristol N2); experiment: C. elegans larval development and growth assay
[11] = tested on: Caenorhabditis elegans strain PE255; experiment: In vivo C. elegans ATP status assay
[12] = tested on: Nrf2/ARE (ARE-bla HepG2 cells); experiment: ARE β-lactamase reporter gene assay; assay type: cell-based, human; settings: 16 h incubation, mean±SD of three experiments
[13] = tested on: mitochondrial respiratory chain complex I; assay type: biochemical, rat; settings: at 100μM
HepG2 cells [14] = experiment: ROS-Glo hydrogen peroxide (ROS) assay; assay type: cell-based, human; settings: 2 h treatment, mean±SD of three experiments
[15] = tested on: isolated rat liver mitochondria; experiment: Oxygen consumption, Clark-type oxygen electrode; assay type: biochemical; settings: for I-ADP, % of control (O2 consumption rate): glutamate/malate driven state 3 respiration; for I-ADP, % of control (O2 consumption rate) / I-sub, % of control (O2 consumption rate) / II-ADP, % of control (O2 consumption rate) / II-sub, % of control (O2 consumption rate): isolated rat liver mitochondria; for I-sub, % of control (O2 consumption rate): glutamate/malate driven state 4 respiration; for II-ADP, % of control (O2 consumption rate): succinate-driven state 3 respiration; for II-sub, % of control (O2 consumption rate): succinate-driven state 4 respiration
[16] = 5 mM glucose, read-out: ATP (HepG2, glucose) IC50
[17] = 10 mM galactose, read-out: ATP (HepG2, galactose) IC50
[18] = 1 h, read-out: Rat hepatocytes IC50 (MMP)
[19] = read-out: MMP assays IC50 (µM) Rat Hepatocytes
[20] = HepG2, 1 h, read-out: HepG2 IC50 Galactose (MMP)
[21] = HepG2, 1 h, read-out: HepG2 IC50 Glucose (MMP)
[22] = HepG2, read-out: MMP assays IC50 (µM) HepG2

NNc1nc(-c2ccc([N+](=O)[O-])cc2)cs1 [2-Hydrazino-4-(4-nitrophenyl)thiazole]
Complex III % inhibition (activity call) [1]: Inactive | IC50 (HepG2 cells [2]; [16]): 48.1 ± 24.3 µM | IC50 (HepG2 cells [2]; [17]): 35.5 ± 4.54 µM | Rat hepatocytes (efficacy) (MMP) (rat primary hepatocytes): −73.9±11.0% | IC50 (rat primary hepatocytes; [18]): 20.9 ± 11.3 µM | IC50 (rat primary hepatocytes; [19]): 7.9 ± 5.75 µM | MMP assays efficacy (%) Rat Hepatocytes (rat primary hepatocytes): -89±18% | p53 (HCT-116) EC50 [3]: Inactive | Parkin recruitment [4]: Active | Complex V % inhibition (activity call) [5]: Inactive | IC50 (HepG2 cells [6]; [20]): 14.2 ± 2.56 µM | IC50 (HepG2 cells [6]; [21]): 12.1 ± 1.39 µM | IC50 (HepG2 cells [6]; [22]): 1.26 µM | Emax (HepG2 cells [6]): 97% | MMP assays efficacy (%) qHTS-HepG2 (HepG2 cells [7]): -106±1% | IC50 (HepG2 cells [7]; read-out: MMP assays IC50 (µM) qHTS-HepG2): 1.6 ± 0.29 µM | Complex II % inhibition (activity call) [8]: Inactive | Complex IV % inhibition (activity call) [9]: Inactive | IC50 (hNSC): 4.3 ± 1.42 µM | EXT: mean difference in nematode size relative to plate controls ([10]; 0.5 µM): 0.08621 | EXT: mean difference in nematode size relative to plate controls ([10]; 1 µM): 0.08886 | EXT: mean difference in nematode size relative to plate controls ([10]; 5 µM): 0.126 | EXT: mean difference in nematode size relative to plate controls ([10]; 10 µM): 0.2572 | EXT: mean difference in nematode size relative to plate controls ([10]; 25 µM): 0.3181 | EXT: mean difference in nematode size relative to plate controls ([10]; 50 µM): 1.067 | EXT: mean difference in nematode size relative to plate controls ([10]; 75 µM): 1.594 | EXT: mean difference in nematode size relative to plate controls ([10]; 100 µM): 1.403 | minimal effective concentration ([10]; Caenorhabditis elegans, read-out: LEC EXT: lowest effect concentration for extinction, a measure of nematode size): 25 µM | LUM: mean difference in luminescence (ATP content) relative to plate controls ([11]; 0.5 µM): -0.01284 | LUM: mean difference in luminescence (ATP content) relative to plate controls ([11]; 1 µM): -0.00711 | LUM: mean difference in luminescence (ATP content) relative to plate controls ([11]; 5 µM): 0.1253 | LUM: mean difference in luminescence (ATP content) relative to plate controls ([11]; 10 µM): -0.00409 | LUM: mean difference in luminescence (ATP content) relative to plate controls ([11]; 25 µM): 0.7526 | LUM: mean difference in luminescence (ATP content) relative to plate controls ([11]; 50 µM): 0.8462 | LUM: mean difference in luminescence (ATP content) relative to plate controls ([11]; 75 µM): 1.473 | LUM: mean difference in luminescence (ATP content) relative to plate controls ([11]; 100 µM): 1.784 | minimal effective concentration ([11]; Caenorhabditis elegans, read-out: LEC LUM: lowest effect concentration for luminescence, a measure of nematode ATP content): 50 µM | EC50 ([12]; Homo sapiens, HepG2, read-out: ARE (HepG2) EC50): 9.83 ± 3.79 µM | Complex I % inhibition [13]: 21.6±7.1 at 100μM % | EC50 (HepG2 cells [14]; Homo sapiens, HepG2, read-out: ROS (HepG2) EC50): 15.4 ± 16.6 µM

COc1cc2c(cc1OC)-c1cc3ccc(OC)c(OC)c3c[n+]1CC2 [Palmatine chloride hydrate]
I-ADP, % of control (O2 consumption rate) ([15]; 0.8 µM): 91 (32.3) % of control | I-sub, % of control (O2 consumption rate) ([15]; 0.8 µM): 114 (10.9) % of control | II-ADP, % of control (O2 consumption rate) ([15]; 0.8 µM): 96 (51.6) % of control | II-sub, % of control (O2 consumption rate) ([15]; 0.8 µM): 119 (19.5) % of control | I-ADP, % of control (O2 consumption rate) ([15]; 4 µM): 76 (27.3) % of control | I-sub, % of control (O2 consumption rate) ([15]; 4 µM): 105 (10.1) % of control | II-ADP, % of control (O2 consumption rate) ([15]; 4 µM): 89 (47.6) % of control | II-sub, % of control (O2 consumption rate) ([15]; 4 µM): 103 (16.9) % of control | I-ADP, % of control (O2 consumption rate) ([15]; 20 µM): 70 (25.0) % of control | I-sub, % of control (O2 consumption rate) ([15]; 20 µM): 114 (10.9) % of control | II-ADP, % of control (O2 consumption rate) ([15]; 20 µM): 85 (45.5) % of control | II-sub, % of control (O2 consumption rate) ([15]; 20 µM): 116 (19.1) % of control | I-ADP, % of control (O2 consumption rate) ([15]; 100 µM): 77 (35.3) % of control | I-sub, % of control (O2 consumption rate) ([15]; 100 µM): 172 (26.6) % of control | II-ADP, % of control (O2 consumption rate) ([15]; 100 µM): 56 (40.4) % of control | II-sub, % of control (O2 consumption rate) ([15]; 100 µM): 114 (35.8) % of control | Potential Mechanism ([15]; mitochondrial respiration in isolated rat liver mitochondria, Clark type oxygen electrode, over tested concentrations): Uncoupler + Inhibitor | Complex III % inhibition (activity call) [1]: Inactive | IC50 (HepG2 cells [2]; [16]): 19 ± 9.49 µM | IC50 (HepG2 cells [2]; [17]): 27.1 ± 8.93 µM | Rat hepatocytes (efficacy) (MMP) (rat primary hepatocytes): −101±2.09% | IC50 (rat primary hepatocytes; [18]): 6.74 ± 2.89 µM | IC50 (rat primary hepatocytes; [19]): 1.37 ± 0.7 µM | MMP assays efficacy (%) Rat Hepatocytes (rat primary hepatocytes): -72±21% | p53 (HCT-116) EC50 [3]: Inactive | Parkin recruitment [4]: Inactive | Complex V % inhibition (activity call) [5]: Inactive | IC50 (HepG2 cells [6]; [20]): 70.6 ± 4.79 µM | IC50 (HepG2 cells [6]; [21]): 55.7 ± 17.9 µM | IC50 (HepG2 cells [6]; [22]): 12.6 µM | Emax (HepG2 cells [6]): 86% | MMP assays efficacy (%) qHTS-HepG2 (HepG2 cells [7]): -99±8% | IC50 (HepG2 cells [7]; read-out: MMP assays IC50 (µM), qHTS-HepG2): 22.7 ± 5.23 µM | Complex II % inhibition (activity call) [8]: Inactive | Complex IV % inhibition (activity call) [9]: Inactive | IC50 (hNSC): 34.1 ± 11.2 µM | EXT: mean difference in nematode size relative to plate controls ([10]; 0.5 µM): -0.01207 | EXT: mean difference in nematode size relative to plate controls ([10]; 1 µM): -0.07266 | EXT: mean difference in nematode size relative to plate controls ([10]; 5 µM): -0.05419 | EXT: mean difference in nematode size relative to plate controls ([10]; 10 µM): -0.03134 | EXT: mean difference in nematode size relative to plate controls ([10]; 25 µM): 0.08842 | EXT: mean difference in nematode size relative to plate controls ([10]; 50 µM): 0.1943 | LUM: mean difference in luminescence (ATP content) relative to plate controls ([11]; 0.5 µM): 1.192 | LUM: mean difference in luminescence (ATP content) relative to plate controls ([11]; 1 µM): -0.05262 | LUM: mean difference in luminescence (ATP content) relative to plate controls ([11]; 5 µM): 0.04332 | LUM: mean difference in luminescence (ATP content) relative to plate controls ([11]; 10 µM): -0.02063 | LUM: mean difference in luminescence (ATP content) relative to plate controls ([11]; 25 µM): -0.0762 | LUM: mean difference in luminescence (ATP content) relative to plate controls ([11]; 50 µM): 0.2026 | LUM: mean difference in luminescence (ATP content) relative to plate controls ([11]; 75 µM): 0.01325 | LUM: mean difference in luminescence (ATP content) relative to plate controls ([11]; 100 µM): 0.2556 | ARE (HepG2) EC50 [12]: Inactive | Complex I % inhibition [13]: 12.3±3.05 at 100μM % | ROS (HepG2) EC50 (HepG2 cells [14]): Inactive
